Results: patent publication US20210220331A1, “INHIBITORS OF IRES-MEDIATED PROTEIN SYNTHESIS” (The Regents of the University of California, priority 2016, published 2021)

Assays:
[1] = target: T1, hnRNP A1 (Homo sapiens, UniProt P09651, D123A/H120A/N171A/Y124A); assay: Photo-cross-linked inhibitor bead binding assay; conditions: alanine substitutions at 120, 123, 124 and 171
T1 construct: pGEX-2T/hnRNP A1 (full length hnRNP A1) and pGEX-2T/UP1 GST fusions; made in house; host or cells: HEK293 cells
T1 sequence (P09651 whole entry H120A/D123A/Y124A/N171A, the tested form may be a part): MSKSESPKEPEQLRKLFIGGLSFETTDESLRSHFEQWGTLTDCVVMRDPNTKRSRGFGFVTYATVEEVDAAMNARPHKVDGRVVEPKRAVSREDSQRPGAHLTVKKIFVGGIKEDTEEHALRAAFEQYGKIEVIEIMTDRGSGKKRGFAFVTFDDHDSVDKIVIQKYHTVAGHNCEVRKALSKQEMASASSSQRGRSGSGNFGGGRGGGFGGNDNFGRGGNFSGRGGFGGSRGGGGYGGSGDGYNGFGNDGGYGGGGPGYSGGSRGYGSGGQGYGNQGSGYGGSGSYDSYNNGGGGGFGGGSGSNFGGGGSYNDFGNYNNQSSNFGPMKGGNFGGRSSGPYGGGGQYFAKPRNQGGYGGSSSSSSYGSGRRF
Description: (§1) Photo-cross-linked C11 and IRES-J007 beads were prepared as previously described (25). Activated Sepharose beads were washed three times with 1 mM aqueous HCl followed by coupling solution (100 mM NaHCO3 and 50% dioxane mixture). A solution of photoaffinity linker in coupling solution was subsequently added to the beads and incubated at 37° C. for 2 h. After washing five times with coupling solution the beads were blocked and placed in a spin column and washed three times with water and methanol. The beads were subsequently irradiated in a UV cross-linker at 365 nm (4 J/cm2) and washed with methanol. Purified GST-tagged native or mutant hnRNP A1 proteins were added to 20 μl of C11 or J007 cross-linked or control uncross-linked beads. After incubating at 4° C. for 24 h, the beads were washed three times and bound proteins eluted in 10% SDS-PAGE sample buffer at 100° C. for 5 min. and the eluted proteins were resolved by SDS-PAGE and immunoblotted using GST antibodies.
(§2) The configurations with the most favorable binding energies were visualized using PyMOL v1.5.6. The electrostatic surface representation of the crystal structure of UP1 is shown with RNP residues of RRM1 and RRM2 labeled in blue. In the 90°-rotated model, the inhibitor interaction pocket is shown in yellow. The inset is a close-up of C11 and IRES-J007 binding to the potential binding site on UP1. Residues predicted to interact with the inhibitors are labeled. (B) Purified GST-tagged wild-type hnRNP A1 (A1) and mutant A1 (4ΔA1) proteins harboring alanine substitutions at all four potential binding sites (120, 123,124 and 171) were added to uncross-linked, C11 and J007-cross-linked beads. Isolated wild-type (A1) and mutant (4ΔA1) proteins were resolved by SDS-PAGE and silver-stained to monitor purity (top panels). The binding of A1 to control, C11 and J007 beads was detected by immunoblotting with GST antibodies (bottom panel). (C) Inhibition of basal IRES activity in 293T cells upon treatment with C11 or IRES-J007. IRES reporter activity was assessed following 24 h treatment with 50 nM concentrations of each inhibitor as indicated. The mean and +SD are shown for three independent experiments. (D) RNA-pull down assays utilizing biotinylated cyclin D1 or c-MYC IRES RNAs of 293T cell extracts treated with the inhibitors as in FIG. 2C.
(§3) To further examine how C11 and IRES-J007 inhibit hnRNP A1 function, used in silico docking analysis was used to create a potential model for the binding of these inhibitors to UP1. […] The purified proteins were then incubated with control, C11 or J007 beads and binding analyzed by immunoblotting using anti-GST antibodies. […]

[2] = target: T2, hnRNP A1 (Homo sapiens, UniProt P09651); assay: Photo-cross-linked inhibitor bead binding assay; conditions: vs control beads, anti-GST immunoblot
T2 construct: pGEX-2T/hnRNP A1 (full length hnRNP A1) and pGEX-2T/UP1 GST fusions; made in house; host or cells: HEK293 cells
T2 sequence (P09651 whole entry, the tested form may be a part): as the sequence (P09651 whole entry H120A/D123A/Y124A/N171A, the tested form may be a part) above, with A120H, A123D, A124Y, A171N counted along it
Description: as §1, §2, §3

[3] = system: human c-myc IRES; assay: Dicistronic IRES mRNA reporter assay (firefly luciferase), c-myc IRES; assay type: cell-based; conditions: for c-myc (decrease): fold decrease in PP242-induced c-MYC IRES activity: LN229, relative to values obtained with parent compound C11
Description: Western blot and quantitative RT-PCR analyses were performed as previously described (19). For Western blotting, cells or tissues were lysed in RIPA (lysis) buffer containing protease inhibitor cocktail and phosSTOP phosphatase inhibitor cocktail (Roche) and extracts resolved by SDSPAGE. Proteins were transferred to PVDF membranes and incubated with the indicated antibodies. For IRES reporter assays, the indicated mRNA reporters were cotransfected into cells with pSVβ-galactosidase to normalize for transfection efficiency as described previously (16). Cells were harvested 18 h following transfection and Renilla, firefly and β-galactosidase activities determined using the Dual-Glo Luciferase and β-galactosidase assay systems (Promega).
(B) Schematic diagrams of the dicistronic constructs used in this study. Constructs used are pRF, pRCD1F, which contains the human cyclin D1 IRES, pRmycF, containing the human c-myc IRES, pRp27F, containing the human p27Kip1 IRES and pRECMVF, containing the IRES from encephalomyocarditis virus. (C) Relative Renilla and firefly luciferase activities obtained from LN229 GBM cells transfected with the indicated constructs in the absence or presence of the inhibitor C11. The mean and +SD are shown for three independent experiments. […] (D) RNA-pull down assays utilizing biotinylated cyclin D1 or c-MYC IRES RNAs. Cytoplasmic extracts of LN229 cells treated with C11 (50 nM) as indicated were incubated with biotinylated cyclin D1 or c-MYC IRES RNAs and precipitated with streptavidin-Sepharose beads. Input and bound fractions were analyzed by immunoblotting using hnRNP A1 antibodies. […] RT-PCR measurements were performed in quadruplicate and the mean and +S.D. are shown. […] (F) Top panel, LN229 cells were treated with C11 as indicated and RT-PCR splicing analysis for Max exon 5 performed as described in the Experimental Methods section. Middle panel, LN229 cells treated with C11 (50 nM) as indicated, were lysed and immunoprecipitated using either eIF-4E or control IgG antibodies. Bound CCND1 or c-MYC RNAs were detected via RT-PCR. The mean and +S.D. are shown for three independent experiments. Bottom panel, cyclin D1 and c-MYC protein levels from the indicated GBM cell lines in the absence or presence of C11 at 24 h following treatment. C11 specifically blocks c-Myc IRES-mediated translation initiation by disrupting the ITAF hnRNP A1-IRES interaction.
Several dicistronic IRES mRNA reporter constructs were utilized, shown in FIG. 1B, in which the indicated IRES sequences were inserted within the intercistronic region. LN229 cells transiently transfected with these constructs were assayed for Renilla and firefly luciferase activities, which are readouts of cap-dependent and IRES-mediated translation initiation, respectively (16). […]

[4] = system: human c-myc IRES; assay: as above; assay type: cell-based; conditions: 293T cells, 50 nM, 24 h

| SMILES | amount of mutant hnRNP A1 (4ΔA1) bound to inhibitor beads relative to native hnRNP A1 [1] | binding of native GST-tagged hnRNP A1 to inhibitor-cross-linked beads [2] | c-myc (decrease): fold decrease in PP242-induced c-MYC IRES activity [3] [fold] | mTOR inhibitor-induced c-MYC IRES activity ([3]; LN229 cells, cotreatment with rapamycin or PP242) | c-MYC IRES activity ([3]; LN229 cells, inhibitor alone) | basal c-MYC IRES activity [4] |
| --- | --- | --- | --- | --- | --- | --- |
| COc1ccc(CN2C(=O)C(Cl)=C(Cl)C2=O)c(OC)c1 [Compound C11, reference compound] | markedly reduced | bound | 1.0 | significantly inhibited | significantly inhibited | reduced IRES activity |
| COc1ccc(CN2C(=O)c3ccccc3C2=O)c(OC)c1 [IRES-J007, 2-((2,4-Dimethoxyphenyl)methyl)isoindoline-1,3-dione] | markedly reduced | bound | 6.51 ± 0.07 |  |  | reduced IRES activity |
